In patent publication US12156867B2, “Melanocortin agents for use in the therapeutic treatment of melanoma, tumors of the gastrointestinal tract, and thyroid carcinoma” (UNIVERSITA' DI PISA, priority 2018, dated 2024):

Experiments:
Format in all cases: cell-based
[1] = test system: WM 266-4 human melanoma cells; test: Apoptosis analysis by Cell Death Detection ELISA Plus; conditions: WM 266-4 cells, 35 nM (corresponding to the IC50), 72 h
Experimental: (§1) In order to assess the apoptotic activity, the melanoma cells were plated at 2×10^5 in sterile Petri dishes. The analysis of apoptosis was performed on WM-266-4 and A-2058 cell lines after treatment with the compound ML00253764 at the experimental IC50 obtained after 72 hours. After the treatment, the cells were scraped off and recovered with their medium into blind ended tubes and counted in the Burker chamber. An aliquot containing 50,000 cells was centrifuged for 10 minutes at 800 rpm, the pellet thus obtained was lysed with an appropriate volume of lysis buffer for 30 minutes at room temperature, then again centrifuged at 200 g for 10 minutes. The supernatant was used for apoptosis analysis by ELISA assay (Cell Death detection ELISA PLUS, Roche). The ELISA apoptosis assay was performed in 96-well microplates and the absorbance reading was performed by using the Thermo labsystems Multiskan Spectrum reader (M-Medical, MI). To visualize the apoptotic process, 2×10^4 A-2058 cells were plated on slides in a 12-well plate and treated for 72 hours with the compound ML00253764 at a concentration of 10 nM. At the end of the incubation with the drug, the cells were washed with PBS, fixed and stained with TO-PRO3 iodide. The coverslips were finally mounted, and the slides viewed under a Leica TCS SP5 confocal laser scanning microscope. […]

[2] = test system: A-2058 human melanoma cells; test: as above; conditions: A-2058 cells, 10 nM (corresponding to the IC50), 72 h
Experimental: as §1

[3] = test system: WM 266-4 human melanoma cell line; test: In vitro cytotoxicity / antiproliferative effect, cell count after 72 h; conditions: for IC50: Homo sapiens, WM 266-4 cells, 72 h drug exposure, cell proliferation vs vehicle controls
From the text: (§2) The present study used the human melanoma cell lines A-2058 BRAF-mutant (CRL-11147), obtained from ATCC (American Type Culture Collection, Manassas, USA), and WM-266-4 (91061233), obtained from ECACC (European Collection of Authenticated Cell Cultures). In addition, carcinoma cells of the gastrointestinal tract (Caco-2, HT-29) and thyroid carcinoma cells (8305C) were used. The compound ML00253764 was purchased from Tocris Bioscience (Bristol, UK), and solubilized in sterile water. The compound Vemurafenib was obtained from Selleckchem (Munich, Germany) and dissolved in dimethyl sulfoxide (DMSO). For the in vitro studies, both drugs were dissolved in a stock solution at 10 mM concentration. In the same experiment, the concentration of DMSO in the medium of the controls was the same used to obtain the maximum concentration of Vemurafenib in the cell culture media. The biotinylated anti-rabbit IgG antibody and the avidin-biotin complex were purchased from Vector Laboratories (Burlingame, CA, USA), while TO-PRO-3 iodide was from Molecular Probes (Eugene, OR, USA). Anti-MC4R antibody (ab75506) and goat anti-rabbit IgG antibody (Alexa Fluor 488) were purchased from Abcam (Cambridge, MA, USA).
(§3) The two tumor cell lines WM-266-4 and A-2058 were grown in cell culture flasks as monolayers and maintained in EMEM and DMEM, respectively, supplemented with 10% fetal bovine serum (FBS), penicillin (50 IU/ml), streptomycin (50 μg/ml) and L-Glutamine (2 mM). The Caco-2, HT-29 and 8305C cells, respectively, were grown in EMEM 20% FBS, McCoy's 5a Medium Modified 10% FBS and RPMI 20% FBS. All reagents used for maintaining tumor cells in culture were purchased from Sigma-Aldrich. The cell lines were maintained in the B5061EK/CO2 mod. Heraeus incubator (Hanau, Germany) at a temperature of 37° C. in a humid atmosphere at 5% CO2. The cells were detached from the culture plates while in the logarithmic growth phase by using a 10× trypsin-EDTA solution and finally plated again to be tested or to keep them in culture.
(§4) The concentration that reduced cell survival by 50% (IC50) compared to controls was finally calculated with GraphPad Prism (version 5.0, San Diego, CA). The simultaneous combination of Vemurafenib and ML00253764 was assessed in the 2 melanoma lines for 72 hours using the aforementioned compounds in a fixed molar ratio of 1:10. The assessment of the level of interaction (synergism, additivity or antagonism) between the compounds ML00253764 and Vemurafenib was performed with the Combination Index (CI) method, according to which CI=1 indicates an additive effect, CI>1 an antagonistic effect and CI<1 a synergistic effect.

[4] = test system: A-2058 human melanoma cell line; test: as above; conditions: A-2058 cells; for IC50: Homo sapiens, A2058, 72 h drug exposure, cell proliferation vs vehicle controls
From the text: as §2, §3, §4

[5] = test system: 8305C human thyroid carcinoma cell line; test: as above; conditions: 8305C cells
From the text: as §2, §3, §4
(§5) The related IC50s were calculated at the end of the experiments.

[6] = test system: HT-29 human carcinoma cell line of the gastrointestinal tract; test: as above; conditions: HT-29 cells
From the text: as §2, §3, §4, §5

[7] = test system: A-2058 human melanoma cells; test: Apoptosis visualised by TO-PRO3 iodide nuclear staining, confocal microscopy; conditions: A-2058 cells, 10 nM, 72 h
Experimental: as §1

[8] = Homo sapiens, 72 h drug exposure, cell proliferation vs vehicle controls

| Structure (SMILES) | apoptotic signal (ELISA, cytosolic nucleosomes) [1] | pro-apoptotic activity (ELISA, cytosolic nucleosomes) [2] | IC50 [3] | antiproliferative effect ([3]; WM-266-4 cells, 10 nM, 72 h) | antiproliferative effect ([4]; 10 nM, 72 h) | IC50 [4] | antiproliferative effect ([5]; 10 nM, 72 h) | IC50 [5, 8] | antiproliferative effect ([6]; 10 nM, 72 h) | IC50 [6, 8] | apoptosis, TO-PRO3 nuclear fluorescence [7] |
| --- | --- | --- | --- | --- | --- | --- | --- | --- | --- | --- | --- |
| COc1ccc(Br)cc1CCc1c(F)cccc1C1=NCCN1 [ML00253764, 2-[2-[2-(5-bromo-2-methoxyphenyl)-ethyl]-3-fluorophenyl]-4,5-dihydro-1H-imidazole] | significant increase in the apoptotic signal | significant pro-apoptotic activity | 33.7 nM | significant antiproliferative effect | significant antiproliferative effect | 11.1 nM | significant antiproliferative effect | 7670 nM | significant antiproliferative effect | 806 nM | increase in fluorescence with “shrunken” nuclei |
| CCCS(=O)(=O)Nc1ccc(F)c(C(=O)c2c[nH]c3ncc(-c4ccc(Cl)cc4)cc23)c1F [Vemurafenib] |  |  | 46.6 nM |  |  | 526 nM |  |  |  |  |  |
